Experimental data published in patent publication US20250228239A1, “MOLECULES HAVING PESTICIDAL UTILITY, AND INTERMEDIATES, COMPOSITIONS, AND PROCESSES, RELATED THERETO” (priority 2024, published 2025).

How the values were obtained:
[1] = tested on: Cabbage Looper (Trichoplusia ni, TRIPNI); assay: Bioassays on Cabbage Looper (CL), 128-well diet tray assay; format: in vivo; conditions: Trichoplusia ni; Cabbage Looper; rating class; read-out: CL
Method in brief: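 Each of eight wells receives artificial diet treated at 50 μg/cm^2 with the test molecule, then one to five second-instar larvae. Incubation runs five to seven days at 25° C with a 14:10 light-dark cycle under vented covers. Mortality is scored per well as a percentage and averaged.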

[2] = tested on: Beet Armyworm (Spodoptera exigua, LAPHEG); assay: Bioassays on Beet Armyworm (BAW), 128-well diet tray assay; format: in vivo; conditions: Spodoptera exigua; Beet Armyworm; rating class; read-out: BAW
Method in brief: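 Larvae at second instar are exposed on dried, compound-treated diet (50 μg/cm^2, delivered in 90:10 acetone-water) in eight replicate wells. After five to seven days at 25° C., 14:10 light-dark, percent mortality in each well is scored and the eight wells averaged.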

Row | Compound | pest or weed control at 50 µg/cm2 [1] | pest or weed control at 50 µg/cm2 [2]
1 | Cc1cc(NC(=O)[C@H]2[C@H](c3ccc(Cl)c(Cl)c3)C2(Cl)Cl)cc(C(=O)Nc2ccc(F)c(NC(=O)C(F)F)c2F)c1Cl [F1484, 2-Chloro-5-((1R,3R)-2,2-dichloro-3-(3,4-dichlorophenyl)cyclopropane-1-carboxamido)-N-(3-(2,2-difluoroacetamido)-2,4-difluorophenyl)-3-methylbenzamide] | 50 to 100% | 50 to 100%
2 | Cc1cc(NC(=O)[C@H]2[C@H](c3ccc(Cl)c(Cl)c3)C2(Cl)Cl)cc(C(=O)Nc2ccc(F)c(NC(=O)C(F)(F)F)c2F)c1Cl [F1485, 2-Chloro-5-((1R,3R)-2,2-dichloro-3-(3,4-dichlorophenyl)cyclopropane-1-carboxamido)-N-(2,4-difluoro-3-(2,2,2-trifluoroacetamido)phenyl)-3-methylbenzamide] | 50 to 100% | 50 to 100%
3 | Cc1cc(NC(=O)[C@H]2[C@H](c3cc(Cl)c(Cl)c(Cl)c3)C2(Cl)Cl)cc(C(=O)Nc2ccc(F)c(NC(=O)C(F)F)c2F)c1Cl [F1486, 2-Chloro-5-((1R,3R)-2,2-dichloro-3-(3,4,5-trichlorophenyl)cyclopropane-1-carboxamido)-N-(3-(2,2-difluoroacetamido)-2,4-difluorophenyl)-3-methylbenzamide] | 50 to 100% | 50 to 100%
4 | Cc1cc(NC(=O)[C@H]2[C@H](c3cc(Cl)c(Cl)c(Cl)c3)C2(Cl)Cl)cc(C(=O)Nc2ccc(F)c(NC(=O)C(F)(F)F)c2F)c1Cl [F1487, 2-Chloro-5-((1R,3R)-2,2-dichloro-3-(3,4,5-trichlorophenyl)cyclopropane-1-carboxamido)-N-(2,4-difluoro-3-(2,2,2-trifluoroacetamido)phenyl)-3-methylbenzamide] | 50 to 100% | 50 to 100%
5 | Nc1cc(NC(=O)c2cc(NC(=O)[C@H]3[C@H](c4ccc(Cl)c(Cl)c4)C3(Cl)Cl)ccc2F)c(F)cc1F [F1490, N-(5-Amino-2,4-difluorophenyl)-5-((1R,3R)-2,2-dichloro-3-(3,4-dichlorophenyl)cyclopropane-1-carboxamido)-2-fluorobenzamide] | 50 to 100% | 50 to 100%
6 | O=C(Nc1ccc(F)c(NC(=O)C(F)F)c1F)c1cc(NC(=O)[C@H]2[C@H](c3ccc(Cl)c(Cl)c3)C2(Cl)Cl)ccc1F [F1491, 5-((1R,3R)-2,2-Dichloro-3-(3,4-dichlorophenyl)cyclopropane-1-carboxamido)-N-(3-(2,2-difluoroacetamido)-2,4-difluorophenyl)-2-fluorobenzamide] | 50 to 100% | 50 to 100%
7 | CC(=O)Nc1c(F)ccc(NC(=O)c2cc(NC(=O)[C@H]3[C@H](c4ccc(Cl)c(Cl)c4)C3(Cl)Cl)ccc2F)c1F [F1493, N-(3-Acetamido-2,4-difluorophenyl)-5-((1R,3R)-2,2-dichloro-3-(3,4-dichlorophenyl)cyclopropane-1-carboxamido)-2-fluorobenzamide] | 50 to 100% | 50 to 100%
8 | Cc1cc(NC(=O)[C@H]2[C@H](c3ccc(F)c(C(F)(F)F)c3)C2(Cl)Cl)cc(C(=O)Nc2ccc(F)c(NC(=O)C(F)F)c2F)c1Cl [F1494, 2-Chloro-5-((1R,3R)-2,2-dichloro-3-(4-fluoro-3-(trifluoromethyl)phenyl)cyclopropane-1-carboxamido)-N-(3-(2,2-difluoroacetamido)-2,4-difluorophenyl)-3-methylbenzamide] | 50 to 100% | 50 to 100%
9 | Cc1cc(NC(=O)[C@H]2[C@H](c3ccc(F)c(C(F)(F)F)c3)C2(Cl)Cl)cc(C(=O)Nc2ccc(F)c(NC(=O)C(F)(F)F)c2F)c1Cl [F1495, 2-Chloro-5-((1R,3R)-2,2-dichloro-3-(4-fluoro-3-(trifluoromethyl)phenyl)cyclopropane-1-carboxamido)-N-(2,4-difluoro-3-(2,2,2-trifluoroacetamido)phenyl)-3-methylbenzamide] | 50 to 100% | 50 to 100%
10 | Cc1cc(NC(=O)[C@H]2[C@H](c3ccc(Cl)c(Cl)c3)C2(Cl)Cl)cc(C(=O)Nc2cc(NC(=O)C(F)F)c(F)cc2F)c1Cl [F1496, 2-Chloro-5-((1R,3R)-2,2-dichloro-3-(3,4-dichlorophenyl)cyclopropane-1-carboxamido)-N-(5-(2,2-difluoroacetamido)-2,4-difluorophenyl)-3-methylbenzamide] | 50 to 100% | 50 to 100%
11 | Cc1cc(NC(=O)[C@H]2[C@H](c3ccc(Cl)c(Cl)c3)C2(Cl)Cl)cc(C(=O)Nc2cc(NC(=O)C(F)(F)F)c(F)cc2F)c1Cl [F1497, 2-Chloro-5-((1R,3R)-2,2-dichloro-3-(3,4-dichlorophenyl)cyclopropane-1-carboxamido)-N-(2,4-difluoro-5-(2,2,2-trifluoroacetamido)phenyl)-3-methylbenzamide] | 50 to 100% | 50 to 100%
12 | Cc1cc(NC(=O)[C@H]2[C@H](c3cc(Cl)c(Cl)c(Cl)c3)C2(Cl)Cl)cc(C(=O)Nc2cc(NC(=O)C(F)F)c(F)cc2F)c1Cl [F1498, 2-Chloro-5-((1R,3R)-2,2-dichloro-3-(3,4,5-trichlorophenyl)cyclopropane-1-carboxamido)-N-(5-(2,2-difluoroacetamido)-2,4-difluorophenyl)-3-methylbenzamide] | 50 to 100% | 50 to 100%
13 | Cc1cc(NC(=O)[C@H]2[C@H](c3cc(Cl)c(Cl)c(Cl)c3)C2(Cl)Cl)cc(C(=O)Nc2cc(NC(=O)C(F)(F)F)c(F)cc2F)c1Cl [F1499, 2-Chloro-5-((1R,3R)-2,2-dichloro-3-(3,4,5-trichlorophenyl)cyclopropane-1-carboxamido)-N-(2,4-difluoro-5-(2,2,2-trifluoroacetamido)phenyl)-3-methylbenzamide] | 50 to 100% | 50 to 100%
14 | Cc1cc(NC(=O)[C@H]2[C@H](c3ccc(F)c(C(F)(F)F)c3)C2(Cl)Cl)cc(C(=O)Nc2cc(NC(=O)C(F)F)c(F)cc2F)c1Cl [F1500, 2-Chloro-5-((1R,3R)-2,2-dichloro-3-(4-fluoro-3-(trifluoromethyl)phenyl)cyclopropane-1-carboxamido)-N-(5-(2,2-difluoroacetamido)-2,4-difluorophenyl)-3-methylbenzamide] | 50 to 100% | 50 to 100%
15 | Cc1cc(NC(=O)[C@H]2[C@H](c3ccc(F)c(C(F)(F)F)c3)C2(Cl)Cl)cc(C(=O)Nc2cc(NC(=O)C(F)(F)F)c(F)cc2F)c1Cl [F1501, 2-Chloro-5-((1R,3R)-2,2-dichloro-3-(4-fluoro-3-(trifluoromethyl)phenyl)cyclopropane-1-carboxamido)-N-(2,4-difluoro-5-(2,2,2-trifluoroacetamido)phenyl)-3-methylbenzamide] | 50 to 100% | 50 to 100%
16 | CC(=O)Nc1c(F)ccc(NC(=O)c2cc(NC(=O)[C@H]3[C@H](c4cc(Cl)cc(Cl)c4)C3(Cl)Cl)cc(F)c2Cl)c1F [F1502, N-(3-Acetamido-2,4-difluorophenyl)-2-chloro-5-((1R,3R)-2,2-dichloro-3-(3,5-dichlorophenyl)cyclopropane-1-carboxamido)-3-fluorobenzamide] | 50 to 100% | 50 to 100%
17 | O=C(Nc1ccc(F)c(NC(=O)C2CCO2)c1F)c1cc(NC(=O)[C@H]2[C@H](c3ccc(F)c(C(F)(F)F)c3)C2(Cl)Cl)ccc1Cl (stereo partly drawn) [F1503, N-(3-(2-Chloro-5-((1R,3R)-2,2-dichloro-3-(4-fluoro-3-(trifluoromethyl)phenyl)cyclopropane-1-carboxamido)benzamido)-2,6-difluorophenyl)oxetane-2-carboxamide] | 50 to 100% | 50 to 100%
18 | CC(=O)Nc1c(F)ccc(NC(=O)c2cc(NC(=O)[C@H]3[C@H](c4cc(Cl)c(Cl)c(Cl)c4)C3(Cl)Cl)cc(F)c2Cl)c1F [F1504, N-(3-Acetamido-2,4-difluorophenyl)-2-chloro-5-((1R,3R)-2,2-dichloro-3-(3,4,5-trichlorophenyl)cyclopropane-1-carboxamido)-3-fluorobenzamide] | 50 to 100% | 50 to 100%
19 | Nc1c(F)ccc(NC(=O)c2c(Cl)ccc(NC(=O)[C@H]3[C@H](c4ccc(F)c(Cl)c4)C3(Cl)Cl)c2F)c1F [F1508, N-(3-Amino-2,4-difluorophenyl)-6-chloro-3-((1R,3R)-2,2-dichloro-3-(3-chloro-4-fluorophenyl)cyclopropane-1-carboxamido)-2-fluorobenzamide] | 50 to 100% | 50 to 100%
20 | O=C(Nc1cc(NC(=O)C(F)F)c(F)cc1F)c1cc(NC(=O)[C@H]2[C@H](c3ccc(Cl)c(Cl)c3)C2(Cl)Cl)ccc1F [F1509, 5-((1R,3R)-2,2-Dichloro-3-(3,4-dichlorophenyl)cyclopropane-1-carboxamido)-N-(5-(2,2-difluoroacetamido)-2,4-difluorophenyl)-2-fluorobenzamide] | 50 to 100% | 50 to 100%
21 | O=C(Nc1c(F)ccc(NC(=O)C(F)F)c1F)c1cc(NC(=O)[C@H]2[C@H](c3ccc(Cl)c(Cl)c3)C2(Cl)Cl)ccc1F [F1512, 5-((1R,3R)-2,2-Dichloro-3-(3,4-dichlorophenyl)cyclopropane-1-carboxamido)-N-(3-(2,2-difluoroacetamido)-2,6-difluorophenyl)-2-fluorobenzamide] | 50 to 100% | 50 to 100%
22 | O=C(Nc1c(F)ccc(NC(=O)C(F)(F)F)c1F)c1cc(NC(=O)[C@H]2[C@H](c3ccc(Cl)c(Cl)c3)C2(Cl)Cl)ccc1F [F1513, 5-((1R,3R)-2,2-Dichloro-3-(3,4-dichlorophenyl)cyclopropane-1-carboxamido)-N-(2,6-difluoro-3-(2,2,2-trifluoroacetamido)phenyl)-2-fluorobenzamide] | 50 to 100% | 50 to 100%
